Results as given in the supplement of paper PMC10883282.

Legend:
Experiment in all cases: relative viability vs DMSO control (72 h) (fraction); higher = more viable cells
A204 = test system: A204
Outline: (§1)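 A 5 µM positive control and 0.1% DMSO vehicle ran alongside sarcoma cell lines seeded in 384-well plates to reach 80–90% confluence. Serially diluted compound, 2.5 µl from source plates of 10 mM to 0.0002 mM, was added after 24 h, and the plates were held 72 h at 37 °C, 5% CO2. Relative viability was worked out from ATPLite readings as percent growth averaged over up to triplicate wells. The values were rescaled so that 1 is full and 0 is none.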

G401 = test system: G401
Outline: as §1

HS729 = test system: HS729
Outline: as §1

KHOS-240S = test system: KHOS-240S
Outline: as §1

MES-SA = test system: MES-SA
Outline: as §1

RD = test system: RD
Outline: as §1

SK-ES-1 = test system: SK-ES-1
Outline: as §1

SK-LMS-1 = test system: SK-LMS-1
Outline: as §1

SW1353 = test system: SW1353
Outline: as §1

SW872 = test system: SW872
Outline: as §1

SW982 = test system: SW982
Outline: as §1

VA-ES-BJ = test system: VA-ES-BJ
Outline: as §1

COc1cc(OC)cc(N(CCNC(C)C)c2ccc3ncc(-c4cnn(C)c4)nc3c2)c1 [Erdafitinib]
Conditions	relative viability
A204, 0.00017 µM	1.04
A204, 0.00051 µM	1.03
A204, 0.00152 µM	0.971
A204, 0.00457 µM	0.934
A204, 0.01372 µM	0.746
A204, 0.04115 µM	0.595
A204, 0.1235 µM	0.422
A204, 0.3704 µM	0.322
A204, 1.111 µM	0.194
A204, 3.333 µM	0.127
A204, 10 µM	0.0417
G401, 0.00017 µM	0.991
G401, 0.00051 µM	0.976
G401, 0.00152 µM	0.933
G401, 0.00457 µM	0.806
G401, 0.01372 µM	0.707
G401, 0.04115 µM	0.591
G401, 0.1235 µM	0.534
G401, 0.3704 µM	0.472
G401, 1.111 µM	0.376
G401, 3.333 µM	0.233
G401, 10 µM	0.121
HS729, 0.00017 µM	1
HS729, 0.00051 µM	0.868
HS729, 0.00152 µM	0.844
HS729, 0.00457 µM	0.813
HS729, 0.01372 µM	0.74
HS729, 0.04115 µM	0.613
HS729, 0.1235 µM	0.604
HS729, 0.3704 µM	0.549
HS729, 1.111 µM	0.487
HS729, 3.333 µM	0.423
HS729, 10 µM	0.37
KHOS-240S, 0.00017 µM	1.06
KHOS-240S, 0.00051 µM	1.05
KHOS-240S, 0.00152 µM	1.01
KHOS-240S, 0.00457 µM	0.999
KHOS-240S, 0.01372 µM	0.939
KHOS-240S, 0.04115 µM	0.828
KHOS-240S, 0.1235 µM	0.762
KHOS-240S, 0.3704 µM	0.713
KHOS-240S, 1.111 µM	0.643
KHOS-240S, 3.333 µM	0.521
KHOS-240S, 10 µM	0.19
MES-SA, 0.00017 µM	0.911
MES-SA, 0.00051 µM	0.9276
MES-SA, 0.00152 µM	0.909
MES-SA, 0.00457 µM	0.85
MES-SA, 0.01372 µM	0.837
MES-SA, 0.04115 µM	0.741
MES-SA, 0.1235 µM	0.679
MES-SA, 0.3704 µM	0.667
MES-SA, 1.111 µM	0.616
MES-SA, 3.333 µM	0.409
MES-SA, 10 µM	0.148
RD, 0.00017 µM	1.05
RD, 0.00051 µM	1.09
RD, 0.00152 µM	1.08
RD, 0.00457 µM	1.08
RD, 0.01372 µM	1.09
RD, 0.04115 µM	1.09
RD, 0.1235 µM	1.13
RD, 0.3704 µM	1.13
RD, 1.111 µM	1.11
RD, 3.333 µM	0.677
RD, 10 µM	0.269
SK-ES-1, 0.00017 µM	1.02
SK-ES-1, 0.00051 µM	1.03
SK-ES-1, 0.00152 µM	1.04
SK-ES-1, 0.00457 µM	1
SK-ES-1, 0.01372 µM	0.957
SK-ES-1, 0.04115 µM	0.876
SK-ES-1, 0.1235 µM	0.872
SK-ES-1, 0.3704 µM	0.818
SK-ES-1, 1.111 µM	0.702
SK-ES-1, 3.333 µM	0.33
SK-ES-1, 10 µM	0.181
SK-LMS-1, 0.00017 µM	0.987
SK-LMS-1, 0.00051 µM	0.991
SK-LMS-1, 0.00152 µM	0.994
SK-LMS-1, 0.00457 µM	1
SK-LMS-1, 0.01372 µM	0.999
SK-LMS-1, 0.04115 µM	0.954
SK-LMS-1, 0.1235 µM	0.946
SK-LMS-1, 0.3704 µM	0.913
SK-LMS-1, 1.111 µM	0.839
SK-LMS-1, 3.333 µM	0.673
SK-LMS-1, 10 µM	0.183
SW872, 0.00017 µM	1.03
SW872, 0.00051 µM	1.05
SW872, 0.00152 µM	1.07
SW872, 0.00457 µM	1.01
SW872, 0.01372 µM	0.989
SW872, 0.04115 µM	0.985
SW872, 0.1235 µM	0.949
SW872, 0.3704 µM	0.912
SW872, 1.111 µM	0.717
SW872, 3.333 µM	0.5
SW872, 10 µM	0.274
SW982, 0.00017 µM	1.01
SW982, 0.00051 µM	0.997
SW982, 0.00152 µM	0.954
SW982, 0.00457 µM	0.992
SW982, 0.01372 µM	0.984
SW982, 0.04115 µM	0.958
SW982, 0.1235 µM	0.953
SW982, 0.3704 µM	0.888
SW982, 1.111 µM	0.544
SW982, 3.333 µM	0.225
SW982, 10 µM	0.0452
SW1353, 0.00017 µM	1.07
SW1353, 0.00051 µM	1.01
SW1353, 0.00152 µM	0.975
SW1353, 0.00457 µM	0.889
SW1353, 0.01372 µM	0.859
SW1353, 0.04115 µM	0.853
SW1353, 0.1235 µM	0.787
SW1353, 0.3704 µM	0.781
SW1353, 1.111 µM	0.745
SW1353, 3.333 µM	0.57
SW1353, 10 µM	0.0859
VA-ES-BJ, 0.00017 µM	1.08
VA-ES-BJ, 0.00051 µM	1.05
VA-ES-BJ, 0.00152 µM	1.06
VA-ES-BJ, 0.00457 µM	1.02
VA-ES-BJ, 0.01372 µM	1.04
VA-ES-BJ, 0.04115 µM	1.03
VA-ES-BJ, 0.1235 µM	1.06
VA-ES-BJ, 0.3704 µM	1.04
VA-ES-BJ, 1.111 µM	0.92
VA-ES-BJ, 3.333 µM	0.612
VA-ES-BJ, 10 µM	0.355
